# Source: patent US9150569B2, “Nitrogen-containing heterocyclic compound having inhibitory effect on production of kynurenine” (KYOWA HAKKO KIRIN CO., LTD., priority 2010, dated 2015)
# Tested on: production of kynurenine in KATO-III cells
# Test: Inhibitory activity on the production of kynurenine (IFN-γ-treated KATO-III cells, kynurenine in the culture medium quantified by absorbance at 480 nm)
# Assay type: cell-based
# Conditions: test compound at 10 μmol/L, human gastric cancer cell line KATO-III, 96 hours, read-out: inhibition rate (production of kynurenine)
# Method: This assay was performed by a modification of the method described in J. Biol. Chem., vol. 263, pp. 2041-2048 (1988). For culture of the human gastric cancer cell line KATO-III, RPMI 1640 (GIBCO, 11875) supplemented with 10 volt FBS (GIBCO, 10091-148, lot. 665285) was used. One μL of a test substance in a DMSO solution was diluted with 199 μL of the culture medium and placed in wells of a 384-well plate (10 μL/well). Next, IFN-γ (Sigma, 1-3265) was added to the culture medium to a concentration of 31.25 ng/mL, and KATO-III cells were suspended at 50,000 cells/mL in the culture medium. Forty μL of the suspension was added to each well (2,000 cells/well) and incubated under a 5% CO2 atmosphere at 37° C. for 96 hours. The final concentration of DMSO was limited to 0.1 volt or less so that DMSO itself may not affect the kynurenine concentration measured by this assay. After the incubation, 10 μL of a 30 w/vt aqueous trichloroacetic acid solution was added to each well, and incubation was performed at 65° C. for 30 minutes. The plate was centrifuged at 2,500×g for 5 minutes and 15μL of the supernatant in each well was transferred into another 384-well plate. To the transferred supernatant, 15 μL of a 2 w/vt solution of p-dimethylaminobenzaldehyde in acetic acid was added, incubation was performed at 65° C. for 20 minutes and the absorbance was measured at 480 nm.
# Sample: the absorbance value of the well to which a DMSO solution containing a test substance was added and in which the cells were treated with IFN-γ.
# Blank: the absorbance value of the well to which DMSO not containing a test substance was added and in which the cells were treated with IFN-γ.
# Control: the absorbance value of the well to which DMSO not containing a test substance was added and in which the cells were not treated with IFN-γ.
# In this assay, expression of IDO in KATO-III cells is induced by IFN-γ treatment and kynurenine in the culture medium is quantified. The kynurenine concentration in a culture medium is known to increase in proportion to the enzymatic activity of intracellular IDO (for example, J. Biol. Chem., vol. 263, pp. 2041-2048 ([…])). […] The production of kynurenine is known to be inhibited by IDO inhibitors (for example, J. Clin. Invest., vol. 117, No. 5, pp. 1147-1154 […]), and thus it is speculated that Compounds (I) also have an inhibitory effect on IDO.
row,Structure (SMILES),inhibition at 10 µM [%]
1,"O=S(=O)(CC1CC1)Nc1nc2ccccc2nc1OC(c1ccncc1)C(F)(F)F (centres unmarked) [Compound 50, 1-cyclopropyl-N-(3-(2,2,2-trifluoro-1-(pyridin-4-yl)ethoxy)quinoxalin-2-yl)methanesulfonamide]",≥ 80
2,"CCCCS(=O)(=O)Nc1nc2ccccc2nc1OC(c1ccnc(C#N)c1)C(F)(F)F (centres unmarked) [Compound 52, N-(3-(1-(2-cyanopyridin-4-yl)-2,2,2-trifluoroethoxy)quinoxalin-2-yl)butane-1-sulfonamide]",≥ 80
3,"COCCS(=O)(=O)Nc1nc2ccccc2nc1OC(c1ccnc(C(C)=O)c1)C(F)(F)F (centres unmarked) [Compound 72, N-(3-(1-(2-acetylpyridin-4-yl)-2,2,2-trifluoroethoxy)quinoxalin-2-yl)-2-methoxyethanesulfonamide]",≥ 80
4,"CCCCS(=O)(=O)Nc1nc2ccccc2nc1OC(c1ccncc1)C(F)(F)F (centres unmarked) [Compound 46, N-(3-(2,2,2-trifluoro-1-(pyridin-4-yl)ethoxy)quinoxalin-2-yl)butane-1-sulfonamide]",≥ 80
5,"CCCC(Oc1nc2ccccc2nc1NS(=O)(=O)CCC)c1ccc[n+]([O-])c1 (centres unmarked) [Compound 22, 3-(1-(3-(propylsulfonamido)quinoxalin-2-yloxy)butyl)pyridine 1-oxide]",≥ 80
6,"CC(C)CS(=O)(=O)Nc1nc2ccccc2nc1OC(c1ccncc1)C(F)(F)F (centres unmarked) [Compound 51, 2-methyl-N-(3-(2,2,2-trifluoro-1-(pyridin-4-yl)ethoxy)quinoxalin-2-yl)propane-1-sulfonamide]",≥ 80
7,"CCCS(=O)(=O)Nc1nc2ccccc2nc1OC(c1cccnc1)C(C)(C)F (centres unmarked) [Compound 7, N-(3-(2-fluoro-2-methyl-1-(pyridin-3-yl)propoxy)quinoxalin-2-yl)propane-1-sulfonamide]",≥ 80
8,"COCCS(=O)(=O)Nc1nc2ccccc2nc1OC(c1ccc(-c2cnn(C)n2)nc1)C(F)(F)F (centres unmarked) [Compound 68A, 2-methoxy-N-(3-(2,2,2-trifluoro-1-(6-(2-methyl-2H-1,2,3-triazol-4-yl)pyridin-3-yl)ethoxy)quinoxalin-2-yl)ethanesulfonamide]",≥ 80
9,"O=S(=O)(CC1CC1)Nc1nc2ccccc2nc1OC(c1ccc2nccn2c1)C(F)(F)F (centres unmarked) [Compound 30, 1-cyclopropyl-N-(3-(2,2,2-trifluoro-1-(imidazo[1,2-a]pyridin-6-yl)ethoxy)quinoxalin-2-yl)methanesulfonamide]",≥ 80
10,"CCCS(=O)(=O)Nc1nc2ccccc2nc1OC(c1ccnc(N)c1)C(F)(F)F (centres unmarked) [Compound 45, N-(3-(1-(2-aminopyridin-4-yl)-2,2,2-trifluoroethoxy)quinoxalin-2-yl)propane-1-sulfonamide]",≥ 80
11,"CCCS(=O)(=O)Nc1nc2ccccc2nc1OC(c1ccn2cc(C)nc2c1)C(F)(F)F (centres unmarked) [Compound 53, N-(3-(2,2,2-trifluoro-1-(2-methylimidazo[1,2-a]pyridin-7-yl)ethoxy)quinoxalin-2-yl)propane-1-sulfonamide]",≥ 80
12,"CCCS(=O)(=O)Nc1nc2ccccc2nc1OC(c1ccc(S(C)(=O)=O)cc1)C(F)(F)F (centres unmarked) [Compound 25, N-(3-(2,2,2-trifluoro-1-(4-(methylsulfonyl)phenyl)ethoxy)quinoxalin-2-yl)propane-1-sulfonamide]",≥ 80
13,"CCCS(=O)(=O)Nc1nc2ccccc2nc1OC(c1ccc2nccn2c1)C(F)(F)F (centres unmarked) [Compound 27, N-(3-(2,2,2-trifluoro-1-(imidazo[1,2-a]pyridin-6-yl)ethoxy)quinoxalin-2-yl)propane-1-sulfonamide]",≥ 80
14,"CCCC(Oc1nc2ccccc2nc1NS(=O)(=O)CCC)c1cccnc1 (centres unmarked) [Compound 21, N-(3-(1-(pyridin-3-yl)butoxy)quinoxalin-2-yl)propane-1-sulfonamide]",≥ 80
15,"COCCS(=O)(=O)Nc1nc2ccccc2nc1OC(c1cnc(C(C)=O)s1)C(F)(F)F (centres unmarked) [Compound 74, N-(3-(1-(2-acetylthiazol-5-yl)-2,2,2-trifluoroethoxy)quinoxalin-2-yl)-2-methoxyethanesulfonamide]",≥ 80
16,"CCCCS(=O)(=O)Nc1nc2ccccc2nc1OC(c1ccc(-c2cnn(C)c2)nc1)C(F)(F)F (centres unmarked) [Compound 33, N-(3-(2,2,2-trifluoro-1-(6-(1-methyl-1H-pyrazol-4-yl)pyridin-3-yl)ethoxy)quinoxalin-2-yl)butane-1-sulfonamide]",≥ 80
17,"CCCS(=O)(=O)Nc1nc2ccccc2nc1OC(c1cnc(C)n1C)C(F)(F)F (centres unmarked) [Compound 70, N-(3-(1-(1,2-dimethyl-1H-imidazol-5-yl)-2,2,2-trifluoroethoxy)quinoxalin-2-yl)propane-1-sulfonamide]",≥ 80
18,"CCCS(=O)(=O)Nc1nc2ccccc2nc1OC(c1cccnc1)C(C)(C)C (centres unmarked) [Compound 3, N-(3-(2,2-dimethyl-1-(pyridin-3-yl)propoxy)quinoxalin-2-yl) propane-1-sulfonamide]",≥ 80
19,"CCCS(=O)(=O)Nc1nc2ccccc2nc1OC(c1ccc[n+]([O-])c1)C(C)(C)C (centres unmarked) [Compound 4, 3-(2,2-dimethyl-1-(3-(propylsulfonamido)quinoxalin-2-yloxy)propyl)pyridine 1-oxide]",≥ 80
20,"CCCS(=O)(=O)Nc1nc2ccccc2nc1OC(C)c1cccnc1 (centres unmarked) [Compound 19, N-(3-(1-(pyridin-3-yl)ethoxy)quinoxalin-2-yl)propane-1-sulfonamide]",≥ 80
21,"CCCCS(=O)(=O)Nc1nc2ccccc2nc1OC(c1ccc(S(C)(=O)=O)nc1)C(F)(F)F (centres unmarked) [Compound 40, N-(3-(2,2,2-trifluoro-1-(6-(methylsulfonyl)pyridin-3-yl)ethoxy)quinoxalin-2-yl)butane-1-sulfonamide]",≥ 80
22,"CCCS(=O)(=O)Nc1nc2ccccc2nc1OC(c1ccc[n+]([O-])c1)C1CC1 (centres unmarked) [Compound 6, 3-(cyclopropyl(3-(propylsulfonamido)quinoxalin-2-yloxy)methyl)pyridine 1-oxide]",≥ 80
23,"CCCS(=O)(=O)Nc1nc2ccccc2nc1OC(CC)c1ccc[n+]([O-])c1 (centres unmarked) [Compound 16, 3-(1-(3-(propylsulfonamido)quinoxalin-2-yloxy)propyl)pyridine 1-oxide]",≥ 80
24,"CCCCC(Oc1nc2ccccc2nc1NS(=O)(=O)CCC)c1ccc[n+]([O-])c1 (centres unmarked) [Compound 12, 3-(1-(3-(propylsulfonamido)quinoxalin-2-yloxy)pentyl)pyridine 1-oxide]",≥ 80
25,"CCCS(=O)(=O)Nc1nc2ccccc2nc1OC(c1ccnc(C#N)c1)C(F)(F)F (centres unmarked) [Compound 44, N-(3-(1-(2-cyanopyridin-4-yl)-2,2,2-trifluoroethoxy)quinoxalin-2-yl)propane-1-sulfonamide]",≥ 80
26,"CCCS(=O)(=O)Nc1nc2ccccc2nc1OC(c1ccc(C#N)nc1)C(F)(F)F (centres unmarked) [Compound 26, N-(3-(1-(6-cyanopyridin-3-yl)-2,2,2-trifluoroethoxy)quinoxalin-2-yl)propane-1-sulfonamide]",≥ 80
27,"CCCCS(=O)(=O)Nc1nc2ccccc2nc1OC(c1ccc2nccn2c1)C(F)(F)F (centres unmarked) [Compound 28, N-(3-(2,2,2-trifluoro-1-(imidazo[1,2-a]pyridin-6-yl)ethoxy)quinoxalin-2-yl)butane-1-sulfonamide]",≥ 80
28,"COCCS(=O)(=O)Nc1nc2ccccc2nc1OC(c1ccc(-c2ccnn2C)nc1)C(F)(F)F (centres unmarked) [Compound 67, 2-methoxy-N-(3-(2,2,2-trifluoro-1-(6-(1-methyl-1H-pyrazol-5-yl)pyridin-3-yl)ethoxy)quinoxalin-2-yl)ethanesulfonamide]",≥ 80
29,"CCCS(=O)(=O)Nc1nc2ccccc2nc1OC(c1ccc[n+]([O-])c1)C1(C)CC1 (centres unmarked) [Compound 14, 3-((1-methylcyclopropyl)(3-(propylsulfonamido)quinoxalin-2-yloxy)methyl)pyridine 1-oxide]",≥ 80
